Data on 10 compounds can be found in ChEMBL document CHEMBL5442219.

As usually defined, the inhibition is the relative decrease from the control value, in per cent.

What all share (settings): Compound concentration 10 µM
The target of assay [1] is T1, Alpha-2A adrenergic receptor (Homo sapiens) (UniProt P08913).
T1 sequence (whole entry): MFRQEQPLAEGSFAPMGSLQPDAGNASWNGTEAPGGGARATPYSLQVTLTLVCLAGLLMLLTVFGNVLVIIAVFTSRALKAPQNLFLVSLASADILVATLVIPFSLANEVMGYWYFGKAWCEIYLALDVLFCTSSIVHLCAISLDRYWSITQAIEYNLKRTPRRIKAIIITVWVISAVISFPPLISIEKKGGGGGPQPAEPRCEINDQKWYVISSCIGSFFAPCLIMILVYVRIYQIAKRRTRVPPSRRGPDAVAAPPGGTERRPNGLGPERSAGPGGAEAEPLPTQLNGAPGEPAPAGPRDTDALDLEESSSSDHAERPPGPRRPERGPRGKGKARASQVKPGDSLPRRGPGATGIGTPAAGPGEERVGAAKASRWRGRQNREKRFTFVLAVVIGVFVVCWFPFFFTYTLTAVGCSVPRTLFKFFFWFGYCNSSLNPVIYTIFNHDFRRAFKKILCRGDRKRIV
Description: PDSP Primary Binding target: ADRA2A - Compounds are tested at 10 uM concentration, plate are incubated at room temperature in the dark for 90 minutes. Reaction are stopped by vacuum filtration onto 0.3% polyethyleneimine soaked filter mats using Filtermate harvester. Scintilation cocktail is then melted onto microwave-dried filters on a hot plate and the radio activity is counted in Microbia counter.

Assay [2] deals with T2, Muscarinic acetylcholine receptor M2 (Homo sapiens) (UniProt P08172).
T2 sequence (whole entry): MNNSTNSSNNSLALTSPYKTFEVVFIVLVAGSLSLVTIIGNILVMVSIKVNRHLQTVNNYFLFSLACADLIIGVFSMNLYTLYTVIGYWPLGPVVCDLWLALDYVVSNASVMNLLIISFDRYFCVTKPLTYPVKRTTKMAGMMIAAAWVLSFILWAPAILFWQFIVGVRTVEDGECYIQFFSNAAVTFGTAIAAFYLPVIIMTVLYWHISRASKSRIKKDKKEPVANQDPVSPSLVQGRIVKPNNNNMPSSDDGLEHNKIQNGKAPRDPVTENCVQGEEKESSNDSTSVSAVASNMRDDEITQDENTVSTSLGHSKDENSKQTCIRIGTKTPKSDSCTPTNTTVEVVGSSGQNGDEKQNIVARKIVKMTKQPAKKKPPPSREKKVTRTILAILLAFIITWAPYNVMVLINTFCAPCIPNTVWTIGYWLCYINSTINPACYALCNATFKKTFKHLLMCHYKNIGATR
Description: PDSP Primary Binding target: CHRM2 - Compounds are tested at 10 uM concentration, plate are incubated at room temperature in the dark for 90 minutes. Reaction are stopped by vacuum filtration onto 0.3% polyethyleneimine soaked filter mats using Filtermate harvester. Scintilation cocktail is then melted onto microwave-dried filters on a hot plate and the radio activity is counted in Microbia counter.

The target in assay [3] is T3, Muscarinic acetylcholine receptor M4 (Homo sapiens) (UniProt P08173).
T3 sequence (whole entry): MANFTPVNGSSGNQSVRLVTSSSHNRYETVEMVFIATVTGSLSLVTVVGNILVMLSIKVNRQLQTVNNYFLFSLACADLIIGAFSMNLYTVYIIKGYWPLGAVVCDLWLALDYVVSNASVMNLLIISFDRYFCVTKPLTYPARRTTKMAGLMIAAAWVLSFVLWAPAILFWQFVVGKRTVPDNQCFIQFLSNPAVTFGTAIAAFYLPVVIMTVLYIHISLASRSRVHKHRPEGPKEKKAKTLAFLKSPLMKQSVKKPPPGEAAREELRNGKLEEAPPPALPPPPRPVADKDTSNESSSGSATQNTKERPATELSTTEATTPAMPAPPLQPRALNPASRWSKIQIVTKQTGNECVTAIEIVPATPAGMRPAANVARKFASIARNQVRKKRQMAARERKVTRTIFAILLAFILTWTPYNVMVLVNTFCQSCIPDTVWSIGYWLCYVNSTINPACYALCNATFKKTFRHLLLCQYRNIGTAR
Description: PDSP Primary Binding target: CHRM4 - Compounds are tested at 10 uM concentration, plate are incubated at room temperature in the dark for 90 minutes. Reaction are stopped by vacuum filtration onto 0.3% polyethyleneimine soaked filter mats using Filtermate harvester. Scintilation cocktail is then melted onto microwave-dried filters on a hot plate and the radio activity is counted in Microbia counter.

The target in assay [4] is D(3) dopamine receptor (Homo sapiens) (UniProt P35462).
Description: PDSP Primary Binding target: DRD3 - Compounds are tested at 10 uM concentration, plate are incubated at room temperature in the dark for 90 minutes. Reaction are stopped by vacuum filtration onto 0.3% polyethyleneimine soaked filter mats using Filtermate harvester. Scintilation cocktail is then melted onto microwave-dried filters on a hot plate and the radio activity is counted in Microbia counter.
Assay [5] addresses D(1B) dopamine receptor (Homo sapiens) (UniProt P21918).
Description: PDSP Primary Binding target: DRD5 - Compounds are tested at 10 uM concentration, plate are incubated at room temperature in the dark for 90 minutes. Reaction are stopped by vacuum filtration onto 0.3% polyethyleneimine soaked filter mats using Filtermate harvester. Scintilation cocktail is then melted onto microwave-dried filters on a hot plate and the radio activity is counted in Microbia counter.
In assay [6] the target is 5-hydroxytryptamine receptor 2B (Homo sapiens) (UniProt P41595).
Description: PDSP Primary Binding target: HTR2B - Compounds are tested at 10 uM concentration, plate are incubated at room temperature in the dark for 90 minutes. Reaction are stopped by vacuum filtration onto 0.3% polyethyleneimine soaked filter mats using Filtermate harvester. Scintilation cocktail is then melted onto microwave-dried filters on a hot plate and the radio activity is counted in Microbia counter.
Assay [7] has as its target T4, 5-hydroxytryptamine receptor 2C (Homo sapiens) (UniProt P28335).
T4 sequence (whole entry): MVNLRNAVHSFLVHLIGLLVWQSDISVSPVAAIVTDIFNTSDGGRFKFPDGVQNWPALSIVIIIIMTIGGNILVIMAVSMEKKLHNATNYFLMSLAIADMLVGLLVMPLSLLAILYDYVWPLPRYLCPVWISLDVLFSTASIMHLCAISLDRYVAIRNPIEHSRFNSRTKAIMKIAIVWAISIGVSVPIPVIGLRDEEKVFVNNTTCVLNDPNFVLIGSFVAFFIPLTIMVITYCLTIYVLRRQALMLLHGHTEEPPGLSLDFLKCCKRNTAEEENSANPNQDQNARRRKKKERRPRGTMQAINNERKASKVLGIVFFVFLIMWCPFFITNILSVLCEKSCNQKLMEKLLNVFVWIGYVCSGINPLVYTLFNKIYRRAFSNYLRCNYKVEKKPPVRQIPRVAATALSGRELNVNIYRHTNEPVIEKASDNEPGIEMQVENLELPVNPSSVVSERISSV
Description: PDSP Primary Binding target: HTR2C - Compounds are tested at 10 uM concentration, plate are incubated at room temperature in the dark for 90 minutes. Reaction are stopped by vacuum filtration onto 0.3% polyethyleneimine soaked filter mats using Filtermate harvester. Scintilation cocktail is then melted onto microwave-dried filters on a hot plate and the radio activity is counted in Microbia counter.

Assay [8] has as its target 5-hydroxytryptamine receptor 6 (Homo sapiens) (UniProt P50406).
Description: PDSP Primary Binding target: HTR6 - Compounds are tested at 10 uM concentration, plate are incubated at room temperature in the dark for 90 minutes. Reaction are stopped by vacuum filtration onto 0.3% polyethyleneimine soaked filter mats using Filtermate harvester. Scintilation cocktail is then melted onto microwave-dried filters on a hot plate and the radio activity is counted in Microbia counter.
In assay [9] the target is 5-hydroxytryptamine receptor 7 (Homo sapiens) (UniProt P34969).
Description: PDSP Primary Binding target: HTR7 - Compounds are tested at 10 uM concentration, plate are incubated at room temperature in the dark for 90 minutes. Reaction are stopped by vacuum filtration onto 0.3% polyethyleneimine soaked filter mats using Filtermate harvester. Scintilation cocktail is then melted onto microwave-dried filters on a hot plate and the radio activity is counted in Microbia counter.
The target in assay [10] is Delta-type opioid receptor (Homo sapiens) (UniProt P41143).
Description: PDSP Primary Binding target: OPRD1 - Compounds are tested at 10 uM concentration, plate are incubated at room temperature in the dark for 90 minutes. Reaction are stopped by vacuum filtration onto 0.3% polyethyleneimine soaked filter mats using Filtermate harvester. Scintilation cocktail is then melted onto microwave-dried filters on a hot plate and the radio activity is counted in Microbia counter.
The target of assay [11] is Sigma non-opioid intracellular receptor 1 (Homo sapiens) (UniProt Q99720).
Description: PDSP Primary Binding target: SIGMAR1 - Compounds are tested at 10 uM concentration, plate are incubated at room temperature in the dark for 90 minutes. Reaction are stopped by vacuum filtration onto 0.3% polyethyleneimine soaked filter mats using Filtermate harvester. Scintilation cocktail is then melted onto microwave-dried filters on a hot plate and the radio activity is counted in Microbia counter.
For assay [12], the target named is Kappa-type opioid receptor (Homo sapiens) (UniProt P41145).
Description: PDSP Primary Binding target: OPRK1 - Compounds are tested at 10 uM concentration, plate are incubated at room temperature in the dark for 90 minutes. Reaction are stopped by vacuum filtration onto 0.3% polyethyleneimine soaked filter mats using Filtermate harvester. Scintilation cocktail is then melted onto microwave-dried filters on a hot plate and the radio activity is counted in Microbia counter.
Assay [13] has as its target Beta-2 adrenergic receptor (Homo sapiens) (UniProt P07550).
Description: PDSP Primary Binding target: ADRB2 - Compounds are tested at 10 uM concentration, plate are incubated at room temperature in the dark for 90 minutes. Reaction are stopped by vacuum filtration onto 0.3% polyethyleneimine soaked filter mats using Filtermate harvester. Scintilation cocktail is then melted onto microwave-dried filters on a hot plate and the radio activity is counted in Microbia counter.
Assay [14] addresses T5, Muscarinic acetylcholine receptor M1 (Homo sapiens) (UniProt P11229).
T5 sequence (whole entry): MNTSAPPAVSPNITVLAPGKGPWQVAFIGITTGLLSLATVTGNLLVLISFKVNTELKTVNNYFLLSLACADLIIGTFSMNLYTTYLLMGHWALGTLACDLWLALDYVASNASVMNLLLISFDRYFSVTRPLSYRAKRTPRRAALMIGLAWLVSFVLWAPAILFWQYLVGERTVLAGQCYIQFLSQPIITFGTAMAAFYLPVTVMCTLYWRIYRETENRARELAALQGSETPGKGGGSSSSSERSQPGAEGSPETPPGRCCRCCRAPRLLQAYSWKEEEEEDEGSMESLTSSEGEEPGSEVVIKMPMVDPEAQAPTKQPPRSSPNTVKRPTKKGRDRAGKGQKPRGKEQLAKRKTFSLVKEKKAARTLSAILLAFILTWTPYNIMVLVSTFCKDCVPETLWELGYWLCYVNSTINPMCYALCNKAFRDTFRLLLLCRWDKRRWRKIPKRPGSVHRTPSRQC
Description: PDSP Primary Binding target: CHRM1 - Compounds are tested at 10 uM concentration, plate are incubated at room temperature in the dark for 90 minutes. Reaction are stopped by vacuum filtration onto 0.3% polyethyleneimine soaked filter mats using Filtermate harvester. Scintilation cocktail is then melted onto microwave-dried filters on a hot plate and the radio activity is counted in Microbia counter.

Sequence of 5-hydroxytryptamine receptor 6 (Homo sapiens) (P50406 whole entry): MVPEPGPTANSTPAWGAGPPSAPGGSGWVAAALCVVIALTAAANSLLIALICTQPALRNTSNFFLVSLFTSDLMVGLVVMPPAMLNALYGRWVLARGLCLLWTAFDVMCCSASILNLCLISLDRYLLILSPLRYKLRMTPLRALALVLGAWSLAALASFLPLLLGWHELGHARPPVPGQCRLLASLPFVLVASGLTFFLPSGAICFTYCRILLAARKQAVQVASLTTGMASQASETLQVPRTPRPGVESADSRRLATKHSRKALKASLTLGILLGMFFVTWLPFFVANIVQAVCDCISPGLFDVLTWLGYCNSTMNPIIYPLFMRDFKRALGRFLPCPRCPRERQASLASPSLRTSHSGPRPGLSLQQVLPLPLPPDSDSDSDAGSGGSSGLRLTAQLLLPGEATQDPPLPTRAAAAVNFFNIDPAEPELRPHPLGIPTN
Sequence of Kappa-type opioid receptor (Homo sapiens) (P41145 whole entry): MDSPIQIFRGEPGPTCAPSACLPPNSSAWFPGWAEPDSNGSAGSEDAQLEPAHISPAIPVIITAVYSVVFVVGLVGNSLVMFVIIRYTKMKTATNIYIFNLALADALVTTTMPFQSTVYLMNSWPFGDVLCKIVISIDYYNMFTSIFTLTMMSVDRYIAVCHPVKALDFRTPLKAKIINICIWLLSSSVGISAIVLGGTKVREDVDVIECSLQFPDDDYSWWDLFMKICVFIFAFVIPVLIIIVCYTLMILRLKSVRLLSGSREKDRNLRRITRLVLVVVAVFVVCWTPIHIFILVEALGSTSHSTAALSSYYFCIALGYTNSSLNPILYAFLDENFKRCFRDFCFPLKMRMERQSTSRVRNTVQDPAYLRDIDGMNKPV
Sequence of D(1B) dopamine receptor (Homo sapiens) (P21918 whole entry): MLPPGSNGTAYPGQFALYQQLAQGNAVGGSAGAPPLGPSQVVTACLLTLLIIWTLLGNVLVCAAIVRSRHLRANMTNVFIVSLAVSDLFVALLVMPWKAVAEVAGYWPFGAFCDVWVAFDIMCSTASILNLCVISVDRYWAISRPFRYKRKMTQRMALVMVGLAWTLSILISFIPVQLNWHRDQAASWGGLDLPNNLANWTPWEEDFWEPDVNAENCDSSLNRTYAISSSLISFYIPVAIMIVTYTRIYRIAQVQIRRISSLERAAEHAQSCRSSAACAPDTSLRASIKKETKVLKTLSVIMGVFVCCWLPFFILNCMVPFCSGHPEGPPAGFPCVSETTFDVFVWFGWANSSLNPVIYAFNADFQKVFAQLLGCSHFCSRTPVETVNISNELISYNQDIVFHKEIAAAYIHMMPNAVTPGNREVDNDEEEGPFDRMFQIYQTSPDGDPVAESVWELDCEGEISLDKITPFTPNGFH
Sequence of Delta-type opioid receptor (Homo sapiens) (P41143 whole entry): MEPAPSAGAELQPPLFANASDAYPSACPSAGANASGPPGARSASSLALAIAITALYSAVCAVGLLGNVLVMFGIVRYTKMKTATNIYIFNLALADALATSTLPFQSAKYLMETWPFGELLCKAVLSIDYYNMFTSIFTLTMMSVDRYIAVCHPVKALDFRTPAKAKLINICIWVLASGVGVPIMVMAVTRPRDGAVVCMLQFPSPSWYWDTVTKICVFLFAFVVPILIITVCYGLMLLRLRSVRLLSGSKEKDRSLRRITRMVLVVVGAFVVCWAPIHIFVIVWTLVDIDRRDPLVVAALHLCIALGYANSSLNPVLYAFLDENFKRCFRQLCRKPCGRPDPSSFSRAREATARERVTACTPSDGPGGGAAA
Sequence of D(3) dopamine receptor (Homo sapiens) (P35462 whole entry): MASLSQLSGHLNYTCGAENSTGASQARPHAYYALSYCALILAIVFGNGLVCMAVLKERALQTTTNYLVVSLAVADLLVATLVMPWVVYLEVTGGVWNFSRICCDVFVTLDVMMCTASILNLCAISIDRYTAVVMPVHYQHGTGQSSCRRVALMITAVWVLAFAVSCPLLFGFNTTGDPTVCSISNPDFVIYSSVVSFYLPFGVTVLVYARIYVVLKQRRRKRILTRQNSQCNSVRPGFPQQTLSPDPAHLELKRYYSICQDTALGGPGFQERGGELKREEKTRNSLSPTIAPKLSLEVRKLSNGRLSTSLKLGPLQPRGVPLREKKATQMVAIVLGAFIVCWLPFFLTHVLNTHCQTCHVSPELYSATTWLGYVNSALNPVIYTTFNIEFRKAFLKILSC
Sequence of 5-hydroxytryptamine receptor 2B (Homo sapiens) (P41595 whole entry): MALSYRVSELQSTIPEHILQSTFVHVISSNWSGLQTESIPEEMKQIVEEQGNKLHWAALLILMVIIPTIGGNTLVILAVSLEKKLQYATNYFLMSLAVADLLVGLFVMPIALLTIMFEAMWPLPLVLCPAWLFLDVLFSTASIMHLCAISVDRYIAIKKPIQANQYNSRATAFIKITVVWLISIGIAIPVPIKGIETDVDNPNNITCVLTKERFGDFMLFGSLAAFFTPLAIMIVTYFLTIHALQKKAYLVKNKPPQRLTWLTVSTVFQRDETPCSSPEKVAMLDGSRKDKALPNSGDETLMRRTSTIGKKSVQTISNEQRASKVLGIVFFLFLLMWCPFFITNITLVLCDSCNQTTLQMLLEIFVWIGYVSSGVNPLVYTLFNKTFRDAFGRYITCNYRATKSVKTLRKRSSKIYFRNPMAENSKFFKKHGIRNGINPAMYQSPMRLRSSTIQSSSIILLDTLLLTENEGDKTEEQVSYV
Sequence of Beta-2 adrenergic receptor (Homo sapiens) (P07550 whole entry, looked up): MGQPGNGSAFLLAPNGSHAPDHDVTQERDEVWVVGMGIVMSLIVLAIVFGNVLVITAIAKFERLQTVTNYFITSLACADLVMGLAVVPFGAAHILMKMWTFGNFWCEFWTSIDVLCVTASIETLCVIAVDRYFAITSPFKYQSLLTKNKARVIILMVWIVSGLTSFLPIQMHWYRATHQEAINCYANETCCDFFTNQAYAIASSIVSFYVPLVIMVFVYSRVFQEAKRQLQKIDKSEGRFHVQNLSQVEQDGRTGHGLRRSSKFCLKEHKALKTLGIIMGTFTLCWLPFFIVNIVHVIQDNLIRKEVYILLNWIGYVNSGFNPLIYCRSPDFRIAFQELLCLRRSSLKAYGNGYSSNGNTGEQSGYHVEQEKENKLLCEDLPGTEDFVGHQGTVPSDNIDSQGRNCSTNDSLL
Sequence of Sigma non-opioid intracellular receptor 1 (Homo sapiens) (Q99720 whole entry): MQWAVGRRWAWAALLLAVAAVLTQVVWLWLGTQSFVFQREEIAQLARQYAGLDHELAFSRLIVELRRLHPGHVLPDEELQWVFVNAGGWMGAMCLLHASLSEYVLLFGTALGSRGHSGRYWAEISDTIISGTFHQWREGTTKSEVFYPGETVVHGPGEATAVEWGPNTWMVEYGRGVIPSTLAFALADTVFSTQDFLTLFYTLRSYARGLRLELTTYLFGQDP
Sequence of 5-hydroxytryptamine receptor 7 (Homo sapiens) (P34969 whole entry): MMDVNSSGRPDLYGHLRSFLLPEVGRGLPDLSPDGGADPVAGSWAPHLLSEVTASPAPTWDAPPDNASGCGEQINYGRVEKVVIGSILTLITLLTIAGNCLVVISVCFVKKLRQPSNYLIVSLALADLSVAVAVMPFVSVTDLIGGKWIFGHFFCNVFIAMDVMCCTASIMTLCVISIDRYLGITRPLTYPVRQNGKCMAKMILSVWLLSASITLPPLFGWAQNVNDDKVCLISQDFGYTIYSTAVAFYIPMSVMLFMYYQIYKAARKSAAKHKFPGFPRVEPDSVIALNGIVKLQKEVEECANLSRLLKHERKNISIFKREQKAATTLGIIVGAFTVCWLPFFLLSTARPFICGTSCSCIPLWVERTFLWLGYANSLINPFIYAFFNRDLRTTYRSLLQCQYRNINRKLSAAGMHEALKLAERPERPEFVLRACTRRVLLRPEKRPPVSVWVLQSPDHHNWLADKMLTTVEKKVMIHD

With `CCCCc1nc(Cl)c(CO)n1Cc1ccc(-c2ccccc2-c2nnn[nH]2)cc1`, the inhibition in [1] was 6.2%; in assay [2], -0.57%; in assay [3], -5.3%; in assay [4] it was 46.3%; in assay [5] it was -1.67%; in assay [6] it was 37.1%. The inhibition in [7] was 55%; in assay [8], 17.6%; in [9], 40%; in assay [10], 19.2%; in assay [11], 9.91%.
In the case of `COc1ccc(/C=C/CCCCOc2ccc(C(=O)c3cccc(C(=O)O)c3)cc2CCC(=O)O)cc1`, the inhibition is 7.46% in [2]; 56.1% in [4]; -2.42% in assay [6]; 3.04% in assay [7]; 29.1% in assay [8]; -2.54% in [9]. Besides, the inhibition in assay [10] is 46.8%; in assay [12], 10.7%; in [11] it was 11.6%.
`CCCCN1CCC(COC(=O)c2cc(Cl)c(N)c3c2OCCO3)CC1`: the inhibition in assay [1] was 66.1%; in [13], 14.1%; in assay [2], 5.99%; in assay [3], 5.81%; in [4] it was 58.8%; in assay [5], -0.98%. The inhibition in assay [6] was 68.3%; in assay [7], 58.2%; in [8], 20.1%; in assay [9], 40%; in assay [10] it was 0.6%; in assay [12], 7.01%. In [11], the inhibition was 105%.
For `Oc1ccc2c3c1O[C@H]1c4[nH]c5c(c4C[C@@]4(O)[C@@H](C2)N(CC2CC2)CC[C@]314)C[C@@]1(O)[C@H]2Cc3ccc(O)c4c3[C@@]1(CCN2CC1CC1)[C@H]5O4`, the inhibition in assay [1] was 6.23%; in assay [13], -6.53%; in assay [14] it was 4.47%; in assay [2], 0.51%; in assay [3], -2.79%; in assay [4], 4.68%. The inhibition in assay [5] is -8.61%; in assay [6], 14.2%; in assay [7], 10.5%; in assay [8], 11.4%; in assay [10] it was 93.5%; in assay [12], 105%. Further, the inhibition in assay [11] was 9.49%.
For `COc1ccc(OC(F)(F)F)cc1CN[C@H]1CCCN[C@H]1c1ccccc1`, the inhibition is 38.4% in assay [1]; -1.91% in assay [13]; 13.7% in assay [14]; 12.9% in assay [2]; -2.31% in assay [3]; 36.3% in assay [4]. Further, the inhibition was -8.91% in assay [5]; 87.7% in assay [6]; 58.5% in [7]; 23.8% in assay [8]; 21.1% in [12]; 59.9% in assay [11].
`CC[C@@H]1CN2C(=O)N(C)c3nc(-c4ccccc4)[nH]c3C2=N1`: the inhibition in assay [1] was -7.63%; in assay [13], 65.2%; in [14] it was 1.36%; in assay [2], -8.11%; in assay [4], 27.9%; in assay [5], 9.96%. The inhibition is -1.79% in assay [6]; 14.2% in assay [7]; 10.3% in assay [8]; 21.6% in assay [9]; -7.99% in assay [10]; 6.33% in assay [12]. Further, the inhibition in [11] was 64.2%.
In the case of `C[C@H](Cc1cc2c(c(C(N)=O)c1)N(CCCO)CC2)NCCOc1ccccc1OCC(F)(F)F`, the inhibition is 84.6% in assay [1]; 99% in assay [13]; 20.8% in [14]; -1.87% in assay [2]; -8.65% in [3]; 94.1% in assay [4]. For the same compound, the inhibition was 71.7% in assay [6], 83.6% in [9], 4.22% in assay [12] and 38.9% in assay [11].
For `C[C@@H](N)Cc1c[nH]cn1`, the inhibition in assay [1] is 8.47%; in assay [13], 10.2%; in assay [14], 2.87%; in assay [2], -5.01%; in assay [4], 8.41%; in assay [5], 24.8%. Moreover, the inhibition in assay [6] is 35.1%; in assay [7], 5.48%; in assay [8], 2.58%; in assay [9], 3.45%; in assay [12], -2.45%; in assay [11] it was 20.9%.
For `COc1cccc([C@H](O)C2CCN(CCc3ccc(F)cc3)CC2)c1OC`, the inhibition is 33.1% in assay [1]; 5.48% in assay [13]; 1.5% in [2]; 9.18% in assay [4]; 4.09% in assay [5]; 89.1% in assay [6]. Further, the inhibition is 5.14% in assay [8], 34.5% in assay [9], 4.4% in assay [10] and 3.05% in assay [11].
Consider `N#Cc1cccc(C(=O)Nc2cc(-c3ccccc3)nn2-c2ccccc2)c1`, for which the inhibition is -0.39% in assay [1]; 1.08% in [13]; 3.6% in assay [14]; 20.9% in assay [2]; -7.29% in [3]; 30.4% in assay [4]. Moreover, the inhibition in assay [5] is 0.95%; in [6] it was 2.3%; in assay [7], 7.87%; in assay [8], 6.69%; in [12] it was 16.2%; in [11] it was 8.95%.
